Experimental data published in the NIST ThermoML archive (doi:10.1016/j.fluid.2016.08.035).
± gives the expanded uncertainty stated by the source.

Tests used:
[1] = molar heat capacity at constant pressure; xn = mol fraction of the nth substance listed; settings: 101 kPa, Liquid, DSC
[2] = xn = mol fraction of the nth substance listed; settings: 101 kPa, Liquid; for viscosity: Falling or rolling sphere viscometry; for speed of sound: Sing-around technique in a fixed-path interferometer; for mass density: Vibrating tube method

CC12CCC(CC1)C(C)(C)O2 [1,3,3-trimethyl-2-oxabicyclo[2.2.2]octane] + CCCCCC
Settings | mass density, [2] [kg/m3] | molar heat capacity at constant pressure, [1] [J/K/mol] | speed of sound, [2] [m/s] | viscosity, [2] [mPa·s]
278.15 K, x1 = 0.1043 | 708.22 ± 0.25 | 194.63 ± 7.5 | 1188.8 ± 1.5 | 0.47 ± 0.04
278.15 K, x1 = 0.2069 | 740.59 ± 0.25 | 200.97 ± 7.8 | 1208.4 ± 1.5 | 0.57 ± 0.04
278.15 K, x1 = 0.2965 | 767.3 ± 0.25 | 206.77 ± 8 | 1225.8 ± 1.5 | 0.68 ± 0.04
278.15 K, x1 = 0.4005 | 796.7 ± 0.24 | 213.53 ± 8.3 | 1246.1 ± 1.5 | 0.83 ± 0.04
278.15 K, x1 = 0.4991 | 823.02 ± 0.24 | 220.18 ± 8.5 | 1265.3 ± 1.5 | 1.03 ± 0.04
278.15 K, x1 = 0.5999 | 848.56 ± 0.24 | 227.2 ± 8.8 | 1284.8 ± 1.5 | 1.28 ± 0.04
278.15 K, x1 = 0.6995 | 872.46 ± 0.24 | 234.25 ± 9.1 | 1304 ± 1.5 | 1.66 ± 0.04
278.15 K, x1 = 0.8005 | 895.28 ± 0.23 | 241.41 ± 9.3 | 1322.8 ± 1.5 | 2.19 ± 0.04
278.15 K, x1 = 0.8985 | 916.39 ± 0.23 | 248.64 ± 9.6 | 1341 ± 1.5 | 2.93 ± 0.05
278.15 K, x1 = 1 | 937.25 ± 0.23 | 256.14 ± 9.9 | 1359.6 ± 1.6 | 4.21 ± 0.05
298.15 K, x1 = 0.1043 | 690.43 ± 0.25 | 201.78 ± 7.8 | 1099.9 ± 1.5 | 0.39 ± 0.04
298.15 K, x1 = 0.2069 | 722.9 ± 0.25 | 208.67 ± 8.1 | 1121.2 ± 1.5 | 0.46 ± 0.04
298.15 K, x1 = 0.2965 | 749.7 ± 0.25 | 214.95 ± 8.3 | 1139.8 ± 1.5 | 0.53 ± 0.04
298.15 K, x1 = 0.4005 | 779.19 ± 0.24 | 222.29 ± 8.6 | 1161.4 ± 1.5 | 0.64 ± 0.04
298.15 K, x1 = 0.4991 | 805.59 ± 0.24 | 229.41 ± 8.9 | 1181.5 ± 1.5 | 0.77 ± 0.04
298.15 K, x1 = 0.5999 | 831.19 ± 0.24 | 236.9 ± 9.2 | 1201.8 ± 1.5 | 0.93 ± 0.04
298.15 K, x1 = 0.6995 | 855.13 ± 0.24 | 244.43 ± 9.5 | 1221.6 ± 1.5 | 1.16 ± 0.04
298.15 K, x1 = 0.8005 | 878 ± 0.24 | 252.03 ± 9.8 | 1241.3 ± 1.5 | 1.48 ± 0.04
298.15 K, x1 = 0.8985 | 899.14 ± 0.23 | 259.73 ± 10 | 1260 ± 1.5 | 1.9 ± 0.04
298.15 K, x1 = 1 | 920.04 ± 0.23 | 267.69 ± 10 | 1278.4 ± 1.5 | 2.6 ± 0.05
318.15 K, x1 = 0.1043 | 672.12 ± 0.26 | 209.13 ± 8.1 | 1012.6 ± 1.5 | 0.34 ± 0.04
318.15 K, x1 = 0.2069 | 704.78 ± 0.25 | 216.45 ± 8.4 | 1035.9 ± 1.5 | 0.38 ± 0.04
318.15 K, x1 = 0.2965 | 731.74 ± 0.25 | 223.08 ± 8.6 | 1055.9 ± 1.5 | 0.43 ± 0.04
318.15 K, x1 = 0.4005 | 761.37 ± 0.25 | 230.81 ± 8.9 | 1078.8 ± 1.5 | 0.51 ± 0.04
318.15 K, x1 = 0.4991 | 787.91 ± 0.24 | 238.36 ± 9.2 | 1100.2 ± 1.5 | 0.6 ± 0.04
318.15 K, x1 = 0.5999 | 813.62 ± 0.24 | 246.29 ± 9.5 | 1121.5 ± 1.5 | 0.71 ± 0.04
318.15 K, x1 = 0.6995 | 837.67 ± 0.24 | 254.22 ± 9.8 | 1142.2 ± 1.5 | 0.86 ± 0.04
318.15 K, x1 = 0.8005 | 860.63 ± 0.24 | 262.24 ± 10 | 1162.8 ± 1.5 | 1.06 ± 0.04
318.15 K, x1 = 0.8985 | 881.86 ± 0.23 | 270.35 ± 10 | 1182.4 ± 1.5 | 1.32 ± 0.04
318.15 K, x1 = 1 | 902.84 ± 0.23 | 278.65 ± 11 | 1201 ± 1.5 | 1.73 ± 0.04
338.15 K, x1 = 0.1043 | 653.14 ± 0.26 | 216.81 ± 8.4 | 926.7 ± 1.5 | 0.3 ± 0.04
338.15 K, x1 = 0.2069 | 685.99 ± 0.25 | 224.63 ± 8.7 | 952.68 ± 1.5 | 0.34 ± 0.04
338.15 K, x1 = 0.2965 | 713.31 ± 0.25 | 231.59 ± 9 | 974.13 ± 1.5 | 0.38 ± 0.04
338.15 K, x1 = 0.4005 | 743.17 ± 0.25 | 239.8 ± 9.3 | 998.9 ± 1.5 | 0.43 ± 0.04
338.15 K, x1 = 0.4991 | 769.91 ± 0.24 | 247.71 ± 9.6 | 1021.5 ± 1.5 | 0.49 ± 0.04
338.15 K, x1 = 0.5999 | 795.8 ± 0.24 | 256.09 ± 9.9 | 1044.1 ± 1.5 | 0.57 ± 0.04
338.15 K, x1 = 0.6995 | 819.99 ± 0.24 | 264.46 ± 10 | 1065.7 ± 1.5 | 0.68 ± 0.04
338.15 K, x1 = 0.8005 | 843.1 ± 0.24 | 272.99 ± 11 | 1087 ± 1.5 | 0.82 ± 0.04
338.15 K, x1 = 0.8985 | 864.46 ± 0.24 | 281.61 ± 11 | 1107.2 ± 1.5 | 0.99 ± 0.04
338.15 K, x1 = 1 | 885.57 ± 0.23 | 290.33 ± 11 | 1126.7 ± 1.5 | 1.27 ± 0.04
